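The compound was tested at five concentrations on cells cultured in 96-well plates, with a 48-hour exposure period. The concentration for 50% growth inhibition is given as GI50. The concentration for full growth arrest is given as TGI.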
Tests used:
Assay in all cases: NCI anticancer screen, dose series, 48 h
786-0 renal = tested on: 786-0 renal
A498 renal = tested on: A498 renal
A549 NSCLC = tested on: A549 NSCLC
ACHN renal = tested on: ACHN renal
BT-549 breast = tested on: BT-549 breast
CAKI-1 renal = tested on: CAKI-1 renal
CCRF-CEM leukemia = tested on: CCRF-CEM leukemia
COLO 205 colon = tested on: COLO 205 colon
DU-145 prostate = tested on: DU-145 prostate
EKVX NSCLC = tested on: EKVX NSCLC
HCC-2998 colon = tested on: HCC-2998 colon
HCT-116 colon = tested on: HCT-116 colon
HCT-15 colon = tested on: HCT-15 colon
HL-60(TB) leukemia = tested on: HL-60(TB) leukemia
HOP-62 NSCLC = tested on: HOP-62 NSCLC
HOP-92 NSCLC = tested on: HOP-92 NSCLC
HS 578T breast = tested on: HS 578T breast
HT29 colon = tested on: HT29 colon
IGROV1 ovarian = tested on: IGROV1 ovarian
K-562 leukemia = tested on: K-562 leukemia
KM12 colon = tested on: KM12 colon
LOX IMVI melanoma = tested on: LOX IMVI melanoma
M14 melanoma = tested on: M14 melanoma
MALME-3M melanoma = tested on: MALME-3M melanoma
MCF7 breast = tested on: MCF7 breast
MDA-MB-231 breast = tested on: MDA-MB-231 breast
MDA-MB-435 = tested on: MDA-MB-435
MOLT-4 leukemia = tested on: MOLT-4 leukemia
NCI-H226 lung = tested on: NCI-H226 lung
NCI-H23 lung = tested on: NCI-H23 lung
NCI-H460 lung = tested on: NCI-H460 lung
NCI-H522 lung = tested on: NCI-H522 lung
NCI/ADR-RES ovarian = tested on: NCI/ADR-RES ovarian
OVCAR-3 ovarian = tested on: OVCAR-3 ovarian
OVCAR-4 ovarian = tested on: OVCAR-4 ovarian
OVCAR-5 ovarian = tested on: OVCAR-5 ovarian
OVCAR-8 ovarian = tested on: OVCAR-8 ovarian
PC-3 prostate = tested on: PC-3 prostate
RPMI-8226 leukemia = tested on: RPMI-8226 leukemia
RXF 393 renal = tested on: RXF 393 renal
SF-268 CNS = tested on: SF-268 CNS
SF-295 CNS = tested on: SF-295 CNS
SF-539 CNS = tested on: SF-539 CNS
SK-MEL-2 melanoma = tested on: SK-MEL-2 melanoma
SK-MEL-28 melanoma = tested on: SK-MEL-28 melanoma
SK-MEL-5 melanoma = tested on: SK-MEL-5 melanoma
SK-OV-3 ovarian = tested on: SK-OV-3 ovarian
SN12C renal = tested on: SN12C renal
SNB-19 CNS = tested on: SNB-19 CNS
SNB-75 CNS = tested on: SNB-75 CNS
SR leukemia = tested on: SR leukemia
SW-620 colon = tested on: SW-620 colon
T-47D breast = tested on: T-47D breast
TK-10 renal = tested on: TK-10 renal
U251 CNS = tested on: U251 CNS
UACC-257 melanoma = tested on: UACC-257 melanoma
UACC-62 melanoma = tested on: UACC-62 melanoma
UO-31 renal = tested on: UO-31 renal

CC(C)c1ccc(NC(=O)Cc2ccc(Nc3ncnc4cc(-c5cnn(CCN(C)C)c5)ccc34)cc2)cc1
GI50 (786-0 renal): 1630 nM | TGI (786-0 renal): 3960 nM | GI50 (A498 renal): 128 nM | TGI (A498 renal): > 10000 nM | GI50 (A549 NSCLC): 1200 nM | TGI (A549 NSCLC): 4150 nM | GI50 (ACHN renal): 2450 nM | TGI (ACHN renal): > 10000 nM | GI50 (BT-549 breast): 3960 nM | TGI (BT-549 breast): > 10000 nM | GI50 (CAKI-1 renal): 1180 nM | TGI (CAKI-1 renal): 2880 nM | GI50 (CCRF-CEM leukemia): 52.2 nM | TGI (CCRF-CEM leukemia): 4680 nM | GI50 (COLO 205 colon): 218 nM | TGI (COLO 205 colon): 1830 nM | GI50 (DU-145 prostate): 1460 nM | TGI (DU-145 prostate): 2830 nM | GI50 (EKVX NSCLC): 2420 nM | TGI (EKVX NSCLC): 9230 nM | GI50 (HCC-2998 colon): 1660 nM | TGI (HCC-2998 colon): 3420 nM | GI50 (HCT-116 colon): 1190 nM | TGI (HCT-116 colon): 2700 nM | GI50 (HCT-15 colon): 1550 nM | TGI (HCT-15 colon): 4080 nM | GI50 (HL-60(TB) leukemia): 2840 nM | TGI (HL-60(TB) leukemia): > 10000 nM | GI50 (HOP-62 NSCLC): > 10000 nM | TGI (HOP-62 NSCLC): > 10000 nM | GI50 (HOP-92 NSCLC): 3440 nM | TGI (HOP-92 NSCLC): > 10000 nM | GI50 (HS 578T breast): 795 nM | TGI (HS 578T breast): 4660 nM | GI50 (HT29 colon): 1400 nM | TGI (HT29 colon): 3490 nM | GI50 (IGROV1 ovarian): 1480 nM | TGI (IGROV1 ovarian): 3640 nM | GI50 (K-562 leukemia): 2120 nM | TGI (K-562 leukemia): 5940 nM | GI50 (KM12 colon): 64.1 nM | TGI (KM12 colon): 1390 nM | GI50 (LOX IMVI melanoma): 1360 nM | TGI (LOX IMVI melanoma): 3370 nM | GI50 (M14 melanoma): 1280 nM | TGI (M14 melanoma): 2970 nM | GI50 (MALME-3M melanoma): > 10000 nM | TGI (MALME-3M melanoma): > 10000 nM | GI50 (MCF7 breast): 1060 nM | TGI (MCF7 breast): 3040 nM | GI50 (MDA-MB-231 breast): 1440 nM | TGI (MDA-MB-231 breast): 3140 nM | GI50 (MDA-MB-435): 2340 nM | TGI (MDA-MB-435): > 10000 nM | GI50 (MOLT-4 leukemia): 1430 nM | TGI (MOLT-4 leukemia): 4730 nM | GI50 (NCI-H226 lung): > 10000 nM | TGI (NCI-H226 lung): > 10000 nM | GI50 (NCI-H23 lung): 4140 nM | TGI (NCI-H23 lung): > 10000 nM | GI50 (NCI-H460 lung): 190 nM | TGI (NCI-H460 lung): 2330 nM | GI50 (NCI-H522 lung): 1560 nM | TGI (NCI-H522 lung): 3940 nM | GI50 (NCI/ADR-RES ovarian): > 10000 nM | TGI (NCI/ADR-RES ovarian): > 10000 nM | GI50 (OVCAR-3 ovarian): 1440 nM | TGI (OVCAR-3 ovarian): 2940 nM | GI50 (OVCAR-4 ovarian): 1510 nM | TGI (OVCAR-4 ovarian): 3050 nM | GI50 (OVCAR-5 ovarian): 1440 nM | TGI (OVCAR-5 ovarian): 3280 nM | GI50 (OVCAR-8 ovarian): 1290 nM | TGI (OVCAR-8 ovarian): 3540 nM | GI50 (PC-3 prostate): 1310 nM | TGI (PC-3 prostate): 2920 nM | GI50 (RPMI-8226 leukemia): 1950 nM | TGI (RPMI-8226 leukemia): 4750 nM | GI50 (RXF 393 renal): 1300 nM | TGI (RXF 393 renal): 3430 nM | GI50 (SF-268 CNS): 1320 nM | TGI (SF-268 CNS): 3090 nM | GI50 (SF-295 CNS): 2470 nM | TGI (SF-295 CNS): > 10000 nM | GI50 (SF-539 CNS): 571 nM | TGI (SF-539 CNS): 2390 nM | GI50 (SK-MEL-2 melanoma): > 10000 nM | TGI (SK-MEL-2 melanoma): > 10000 nM | GI50 (SK-MEL-28 melanoma): > 10000 nM | TGI (SK-MEL-28 melanoma): > 10000 nM | GI50 (SK-MEL-5 melanoma): > 10000 nM | TGI (SK-MEL-5 melanoma): > 10000 nM | GI50 (SK-OV-3 ovarian): 1610 nM | TGI (SK-OV-3 ovarian): 4810 nM | GI50 (SN12C renal): 1340 nM | TGI (SN12C renal): 3050 nM | GI50 (SNB-19 CNS): 1270 nM | TGI (SNB-19 CNS): 3390 nM | GI50 (SNB-75 CNS): 162 nM | TGI (SNB-75 CNS): 2030 nM | GI50 (SR leukemia): 107 nM | TGI (SR leukemia): 2420 nM | GI50 (SW-620 colon): 1180 nM | TGI (SW-620 colon): 2760 nM | GI50 (T-47D breast): 1380 nM | TGI (T-47D breast): 3730 nM | GI50 (TK-10 renal): 1720 nM | TGI (TK-10 renal): 3790 nM | GI50 (U251 CNS): 1700 nM | TGI (U251 CNS): 4500 nM | GI50 (UACC-257 melanoma): > 10000 nM | TGI (UACC-257 melanoma): > 10000 nM | GI50 (UACC-62 melanoma): > 10000 nM | TGI (UACC-62 melanoma): > 10000 nM | GI50 (UO-31 renal): 3020 nM | TGI (UO-31 renal): > 10000 nM

From PubChem BioAssay (NCI)
